Experimental findings from patent publication US20020142944A1, “Treatment of ocular disorders” (Erasmus Universiteit Rotterdam, priority 1999, published 2002) are described below.

The subject of data set [1] is bilateral cystoid macular edema. Kind of data set: Treatment of cystoid macular edema, single patient. Type of data set: in vivo, human. The settings on record: for effect on the edema or visual acuity: previous therapy before octreotide, eye drops / peribulbar injections. The protocol:
One year later, they noticed blurred vision. Their visual acuity was 20/50 in the right eye and 20/40 in the left eye (by Snellen chart). […] Their visual acuity slowly deteriorated in the subsequent years. […] They had no family history of macular edema. […] The injections were stopped four weeks later, because there was no further improvement.
Treatment with 100 μg or octreotide subcutaneously once daily was resumed. […] […] stopped treatment a second time; after four weeks […] visual acuity was 20/70 in the right eye and 20/50 in the left eye. Octreotide therapy was resumed, and four weeks later […] visual acuity was 20/40 in each eye.

In data set [2] the test system is refractory CME due to chronic uveitis. Put plainly: Octreotide treatment of 10 patients with refractory CME due to chronic uveitis, three months. It counts as in vivo, human. The protocol: Patients were treated in accordance to the declaration of Helsinki. In this study, 10 consecutive patients from the Department of Ophthalmology, Erasmus University Medical Center, and the Eye Hospital Rotterdam, were selected because of refractory CME due to chronic uveitis. Since CME in uveitis can be influenced in time by multiple factors, only patients suffering from macular edema for more than 6 months were included, regardless of their immune suppressive treatment. Six patients had bilateral CME and four patients unilateral. Three patients with pars planitis needed no treatment for their inflammation but still had marked CME. Fluorescein angiography was performed within one week before starting octreotide treatment. Octreotide therapy was given after informed consent had been obtained. Dosage was started with 100 μg subcutaneously, on the first day, two times 100 μg on the second day and three times 100 μg from the third day onwards. When possible, the long-acting repeatable (LAR) formulation was prescribed in a dosage of 20 mg per 4 weeks intramuscularly, which became available during the studies. The dose of patient 3, a child, was adjusted for their age to 10 mg per month (im). Immune suppressive treatment was adjusted as based on inflammatory activity. Visual acuity was measured after 2, 4, and 12 weeks of treatment. Fluorescein angiography was repeated after three months of treatment.

The mark [3] stands for this setting: after eight weeks of 100 μg subcutaneously three times daily, before treatment 20/100 in each eye.
[4] abbreviates: four weeks after second stop of treatment.
Where [5] appears, read: three months after resuming 100 μg subcutaneously once daily.
Setting [6] is: within two weeks after first stop of injections.
Setting [7] is: after three months of treatment.
Setting [8] is: three months therapy, 10 patients.

For the compound `CC(=O)Nc1nnc(S(N)(=O)=O)s1` [acetazolamide], the “effect on the edema or visual acuity” value in data set [1] is “without beneficial effect”.
In the case of `C[C@H]1C[C@H]2[C@@H]3CCC4=CC(=O)C=C[C@]4(C)[C@@]3(F)[C@@H](O)C[C@]2(C)[C@@]1(O)C(=O)CO` [betamehtasone, betamethasone], in data set [1], the “effect on the edema or visual acuity” value is “without beneficial effect”.
On to `O=C(O)Cc1ccccc1Nc1c(Cl)cccc1Cl` [diclofenac], for which the “effect on the edema or visual acuity” value in data set [1] is on record as “without beneficial effect”.
With `CCOC(=O)[C@H](CCc1ccccc1)N[C@@H](C)C(=O)N1CCC[C@H]1C(=O)O` [enalapril], the “effect on the edema or visual acuity” value in data set [1] is on record as “without beneficial effect”.
As to `C[C@@H](O)[C@@H]1NC(=O)[C@H](CCCCN)NC(=O)[C@@H](Cc2c[nH]c3ccccc23)NC(=O)[C@H](Cc2ccccc2)NC(=O)[C@@H](NC(=O)[C@H](N)Cc2ccccc2)CSSC[C@@H](C(=O)N[C@H](CO)[C@@H](C)O)NC1=O` [octreotide], in data set [1] (after eight weeks of 100 μg subcutaneously three times daily), the “ophthalmoscopic finding, cystoid lesions” value is listed as “the cysts had dried”. Besides, in data set [1] (setting [3]), the “visual acuity in the left eye (Snellen chart)” value is recorded as 20/50 and the “visual acuity in the right eye (Snellen chart)” value is reported as 20/40. In data set [1] (after six weeks of 100 μg subcutaneously three times daily), the “visual change noted by the patient” value is recorded as “visual improvement”. Moreover, in data set [1] (four weeks after second resumption of therapy), the “visual acuity in each eye” value was 20/40. In data set [1] (setting [4]), the “visual acuity in the left eye after stopping treatment” value is 20/50 and the “visual acuity in the right eye after stopping treatment” value was 20/70. In data set [1] (setting [5]), the fluorescein angiography finding result is reported as “some foveal fluorascein leakage” and the “visual acuity in each eye” value was 20/40. Besides, the “side effects from the treatment” value in data set [1] (whole course of treatment) was “no side effects”. In data set [1] (setting [6]), the “ophthalmoscopic finding after stopping treatment” value is “some fluid was observed” and the “visual acuity in each eye after stopping treatment” value is on record as 10/50. Moreover, in data set [2] (setting [7]), the “fluorescein angiographic macular edema clearly diminished” value is on record as 3 eyes, the “fluorescein angiographic macular edema diminished but still visible” value is 9 eyes and the “fluorescein angiographic macular edema unaltered” value is reported as 3 eyes. For the same compound, the ocular hypertension entry in data set [2] (at week 4, 10 patients) is reported as “one”. For the same compound, the “diarrhoea (only side effect observed)” value in data set [2] (during the first days of treatment, 10 patients) was 4 patients. Moreover, in data set [2] (setting [8]), the “patients in whom visual acuity or inflammation activity deteriorated” value was “none” and the “patients with decreased inflammation, leading to tapered immunosuppressive therapy” value is “Four”. In data set [2] (three months therapy, 10 patients, six bilateral and four unilateral CME), the “CME dissolved by stereoscopic examination” value was 5 eyes. In data set [2] (three months therapy, further eyes beside those dissolved), the “CME diminished by stereoscopic examination” value is reported as 11 eyes.
